target: TrkA kinase (Homo sapiens, UniProt P04629); experiment: TrkA kinase assay (mobility shift assay); assay type: biochemical; conditions: class symbols; read-out: Trk A Kinase IC50
Method in brief: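 Caliper mobility-shift readout of FAM-labelled peptide conversion by TrkA in 50 mM HEPES pH 7.5, 0.0015% Brij-35, with ATP; enzyme preincubated 10 min with compound (10-point dilution), reaction at 28 °C, EDTA stop. Inhibition relative to DMSO and no-enzyme controls; IC50 by four-parameter fit.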

Sequence of TrkA kinase (P04629 33-796): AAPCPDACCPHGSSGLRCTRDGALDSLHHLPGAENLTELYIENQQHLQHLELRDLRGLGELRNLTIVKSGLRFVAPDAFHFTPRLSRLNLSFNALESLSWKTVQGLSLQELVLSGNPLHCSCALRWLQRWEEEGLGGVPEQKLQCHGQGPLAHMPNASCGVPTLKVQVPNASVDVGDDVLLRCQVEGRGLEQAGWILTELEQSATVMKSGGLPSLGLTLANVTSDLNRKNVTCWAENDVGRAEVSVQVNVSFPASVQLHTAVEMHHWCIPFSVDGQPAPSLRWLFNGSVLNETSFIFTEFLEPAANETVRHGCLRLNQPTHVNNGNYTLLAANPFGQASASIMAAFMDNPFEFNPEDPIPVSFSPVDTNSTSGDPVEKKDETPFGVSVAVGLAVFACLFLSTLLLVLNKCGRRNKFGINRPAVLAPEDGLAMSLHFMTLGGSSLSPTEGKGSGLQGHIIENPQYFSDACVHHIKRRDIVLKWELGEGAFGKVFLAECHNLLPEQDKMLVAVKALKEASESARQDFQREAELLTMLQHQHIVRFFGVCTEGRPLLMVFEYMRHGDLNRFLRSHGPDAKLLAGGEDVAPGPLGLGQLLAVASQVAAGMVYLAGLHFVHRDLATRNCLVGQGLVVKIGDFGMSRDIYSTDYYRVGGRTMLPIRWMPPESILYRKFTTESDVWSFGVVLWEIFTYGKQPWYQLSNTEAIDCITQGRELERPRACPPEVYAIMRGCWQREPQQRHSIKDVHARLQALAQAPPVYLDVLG

SMILES	IC50 [nM]
CNc1cc2[nH]c(-c3cnn4ccc(N5CCC[C@@H]5c5cc(F)ccc5F)nc34)nc2cc1C#N [Compound 142, (R)-2-(5-(2-(2,5-difluorophenyl)pyrrolidin-1-yl)pyrazolo[1,5-a]pyrimidin-3-yl)-6-(methylamino)-1H-benzo[d]imidazole-5-carbonitrile]	≤ 10
N#Cc1cc2nc(-c3cnn4ccc(N5CCC[C@@H]5c5cc(F)ccc5F)nc34)[nH]c2cc1N1CCOCC1 [Compound 143, (R)-2-(5-(2-(2,5-difluorophenyl)pyrrolidin-1-yl)pyrazolo[1,5-a]pyrimidin-3-yl)-6-morpholino-1H-benzo[d]imidazole-5-carbonitrile]	≤ 10
N#Cc1cc2nc(-c3cnn4ccc(N5CCC[C@@H]5c5cc(F)ccc5F)nc34)[nH]c2cc1N1CC(O)C1 [Compound 145, (R)-2-(5-(2-(2,5-difluorophenyl)pyrrolidin-1-yl)pyrazolo[1,5-a]pyrimidin-3-yl)-6-(3-hydroxyazetidin-1-yl)-1H-benzo[d]imidazole-5-carbonitrile]	≤ 10
O=C1NCCNc2cc3[nH]c(-c4cnn5ccc(N6CCC[C@@H]6c6cc(F)ccc6F)nc45)nc3cc21 [Compound 146, (R)-2-(5-(2-(2,5-difluorophenyl)pyrrolidin-1-yl)pyrazolo[1,5-a]pyrimidin-3-yl)-5,6,7,8-tetrahydroimidazo[4′,5′:4,5]benzo[1,2-e][1,4]diazepin-9(3H)-one]	≤ 10
O=C1NCCOc2cc3[nH]c(-c4cnn5ccc(N6CCC[C@@H]6c6cc(F)ccc6F)nc45)nc3cc21 [Compound 147, (R)-2-(5-(2-(2,5-difluorophenyl)pyrrolidin-1-yl)pyrazolo[1,5-a]pyrimidin-3-yl)-7,8-dihydro-3H-imidazo[4′,5′:4,5]benzo[1,2-f][1,4]oxazepin-9(6H)-one]	≤ 10
N#Cc1cc2nc(-c3cnn4ccc(N5CCC[C@@H]5c5cc(F)ccc5F)nc34)[nH]c2cc1O [Compound 149, (R)-2-(5-(2-(2,5-difluorophenyl)pyrrolidin-1-yl)pyrazolo[1,5-a]pyrimidin-3-yl)-6-hydroxy-1H-benzo[d]imidazole-5-carbonitrile]	≤ 10
N#Cc1cc2nc(-c3cnn4ccc(N5CCC[C@@H]5c5cc(F)ccc5F)nc34)[nH]c2cc1OCCO [Compound 150, (R)-2-(5-(2-(2,5-difluorophenyl)pyrrolidin-1-yl)pyrazolo[1,5-a]pyrimidin-3-yl)-6-(2-hydroxyethoxy)-1H-benzo[d]imidazole-5-carbonitrile]	≤ 10
N#Cc1cc2nc(-c3cnn4ccc(N5CCC[C@@H]5c5cc(F)ccc5F)nc34)[nH]c2cc1Br [Compound 151, (R)-6-bromo-2-(5-(2-(2,5-difluorophenyl)pyrrolidin-1-yl)pyrazolo[1,5-a]pyrimidin-3-yl)-1H-benzo[d]imidazole-5-carbonitrile]	≤ 10
COC(=O)c1cc2[nH]c(-c3cnn4ccc(N5CCC[C@@H]5c5cc(F)ccc5F)nc34)nc2cc1C#N [Compound 152, methyl (R)-5-cyano-2-(5-(2-(2,5-difluorophenyl)pyrrolidin-1-yl)pyrazolo[1,5-a]pyrimidin-3-yl)-1H-benzo[d]imidazole-6-carboxylate]	≤ 10
N#Cc1cc2nc(-c3cnn4ccc(N5CCC[C@@H]5c5cc(F)ccc5F)nc34)[nH]c2cc1C(=O)O [Compound 153, (R)-5-cyano-2-(5-(2-(2,5-difluorophenyl)pyrrolidin-1-yl)pyrazolo[1,5-a]pyrimidin-3-yl)-1H-benzo[d]imidazole-6-carboxylic acid]	≤ 10
N#Cc1cc2nc(-c3cnn4ccc(N5CCC[C@@H]5c5cc(F)ccc5F)nc34)[nH]c2cc1C(N)=O [Compound 154, (R)-5-cyano-2-(5-(2-(2,5-difluorophenyl)pyrrolidin-1-yl)pyrazolo[1,5-a]pyrimidin-3-yl)-1H-benzo[d]imidazole-6-carboxamide]	≤ 10
COC(=O)c1c(F)ccc2nc(-c3cnn4ccc(N5CCC[C@@H]5c5cc(F)ccc5F)nc34)[nH]c12 [Compound 158, methyl (R)-2-(5-(2-(2,5-difluorophenyl)pyrrolidin-1-yl)pyrazolo[1,5-a]pyrimidin-3-yl)-6-fluoro-1H-benzo[d]imidazole-7-carboxylate]	≤ 10
Cc1cc2[nH]c(-c3cnn4ccc(N5CCC[C@@H]5c5cc(F)ccc5F)nc34)nc2cc1C#N [Compound 159, (R)-2-(5-(2-(2,5-difluorophenyl)pyrrolidin-1-yl)pyrazolo[1,5-a]pyrimidin-3-yl)-6-methyl-1H-benzo[d]imidazole-5-carbonitrile]	≤ 10
CN1CCN(c2cc3[nH]c(-c4cnn5ccc(N6CCC[C@@H]6c6cc(F)ccc6F)nc45)nc3cc2C#N)CC1 [Compound 163, (R)-2-(5-(2-(2,5-difluorophenyl)pyrrolidin-1-yl)pyrazolo[1,5-a]pyrimidin-3-yl)-6-(4-methylpiperazin-1-yl)-1H-benzo[d]imidazole-5-carbonitrile]	≤ 10
N#Cc1cc2nc(-c3cnn4ccc(N5CCC[C@@H]5c5cc(F)ccc5F)nc34)[nH]c2cc1N1CC[C@H](O)C1 [Compound 164, 2-(5-((R)-2-(2,5-difluorophenyl)pyrrolidin-1-yl)pyrazolo[1,5-a]pyrimidin-3-yl)-6-((S)-3-hydroxypyrrolidin-1-yl)-1H-benzo[d]imidazole-5-carbonitrile]	≤ 10
N#Cc1cc2nc(-c3cnn4ccc(N5CCC[C@@H]5c5cc(F)ccc5F)nc34)[nH]c2cc1N1CCC[C@H]1C#N [Compound 165, 6-((S)-2-cyanopyrrolidin-1-yl)-2-(5-((R)-2-(2,5-difluorophenyl)pyrrolidin-1-yl)pyrazolo[1,5-a]pyrimidin-3-yl)-1H-benzo[d]imidazole-5-carbonitrile]	≤ 10
CN(C)CCN(C)c1cc2[nH]c(-c3cnn4ccc(N5CCC[C@@H]5c5cc(F)ccc5F)nc34)nc2cc1C#N [Compound 168, (R)-2-(5-(2-(2,5-difluorophenyl)pyrrolidin-1-yl)pyrazolo[1,5-a]pyrimidin-3-yl)-6-((2-(dimethylamino)ethyl)(methyl)amino)-1H-benzo[d]imidazole-5-carbonitrile]	≤ 10
CS(=O)(=O)c1ccc2nc(-c3cnn4ccc(N5CCC[C@@H]5c5cc(F)ccc5F)nc34)[nH]c2c1 [Compound 170, (R)-5-(2-(2,5-difluorophenyl)pyrrolidin-1-yl)-3-(6-(methylsulfonyl)-1H-benzo[d]imidazol-2-yl)pyrazolo[1,5-a]pyrimidine]	≤ 10
COc1cc2oc(-c3cnn4ccc(N5CCC[C@@H]5c5cc(F)ccc5F)nc34)nc2cc1C#N [Compound 174, (R)-2-(5-(2-(2,5-difluorophenyl)pyrrolidin-1-yl)pyrazolo[1,5-a]pyrimidin-3-yl)-6-methoxybenzo[d]oxazole-5-carbonitrile]	≤ 10

same assay, conditions: numeric values; read-out: Trk A Kinase IC50

SMILES	IC50 [nM]
N#Cc1cc2[nH]c(-c3cnn4ccc(N5CCC[C@@H]5c5cc(F)ccc5F)nc34)nc2cc1C(F)(F)F [Compound 157, (R)-2-(5-(2-(2,5-difluorophenyl)pyrrolidin-1-yl)pyrazolo[1,5-a]pyrimidin-3-yl)-5-(trifluoromethyl)-1H-benzo[d]imidazole-6-carbonitrile]	27
COc1cc2[nH]c(-c3cnn4ccc(N5CCC[C@@H]5c5cc(F)ccc5F)nc34)nc2cc1C(=O)N(C)C [Compound 161, (R)-2-(5-(2-(2,5-difluorophenyl)pyrrolidin-1-yl)pyrazolo[1,5-a]pyrimidin-3-yl)-6-methoxy-N,N-dimethyl-1H-benzo[d]imidazole-5-carboxamide]	0.9
